These results are taken from patent US7790895B2, “Quinoline derivatives as potassium ion channel openers” (Janssen Pharmaceutica NV, priority 2005, dated 2010).

One may read the EC50 as the concentration that produces a half-maximal response. A high value points to a need for much substance.

This test addresses T1, KATP channels (Homo sapiens, UniProt O60706).
T1 construct: TE671 human medulloblastoma cells were obtained from ATCC; host or cells: TE671 human medulloblastoma cells
The test is described as follows: Potassium Channel Assay (FLIPR membrane potential, KATP channel opening). It counts as cell-based. As to conditions: TE671 human medulloblastoma cells, Membrane Potential Assay Dye, room temperature; for % Stimulation: test concentration not given. How it is done:
TE671 human medulloblastoma cells were obtained from ATCC and grown in Dulbecco's modified Eagle's medium (DMEM) supplemented with 10% fetal bovine serum, 100 U/ml penicillin and 100 U/ml streptomycine.
The day before testing, the cells were plated in black 96-well plates at 50K/well. On the day of testing, the growth media was removed, then 100 μl of FLIPR buffer (20 mM HEPES, 120 mM NaCl, 2 mM KCl, 2 mM CaCl2, 1 mM MgCl2, 5 mM Glucose) and 100 μl of Membrane Potential Assay Dye (Molecular Devices) dissolved in FLIPR buffer were added to each well. The cells were incubated at room temperature for 15 to 30 min.
The effect of test compounds on KATP channels were evaluated on a fluorometric imaging plate reader (FLIPR, Molecular Devices) at room temperature. After a baseline period, 50 μl of 5× stock solution of test compound prepared in FLIPR buffer was added and fluorescence change was monitored for 3 minutes. After this reading, glyburide, a KATP channel blocker, was added to a final concentration of 5 μM to check the specificity of the test compound as a KATP channel opener. Hyperpolarization resulting from KATP channel opening was observed as a decrease in fluorescence intensity.

T1 sequence (O60706 1-1549 isoform O60706-2): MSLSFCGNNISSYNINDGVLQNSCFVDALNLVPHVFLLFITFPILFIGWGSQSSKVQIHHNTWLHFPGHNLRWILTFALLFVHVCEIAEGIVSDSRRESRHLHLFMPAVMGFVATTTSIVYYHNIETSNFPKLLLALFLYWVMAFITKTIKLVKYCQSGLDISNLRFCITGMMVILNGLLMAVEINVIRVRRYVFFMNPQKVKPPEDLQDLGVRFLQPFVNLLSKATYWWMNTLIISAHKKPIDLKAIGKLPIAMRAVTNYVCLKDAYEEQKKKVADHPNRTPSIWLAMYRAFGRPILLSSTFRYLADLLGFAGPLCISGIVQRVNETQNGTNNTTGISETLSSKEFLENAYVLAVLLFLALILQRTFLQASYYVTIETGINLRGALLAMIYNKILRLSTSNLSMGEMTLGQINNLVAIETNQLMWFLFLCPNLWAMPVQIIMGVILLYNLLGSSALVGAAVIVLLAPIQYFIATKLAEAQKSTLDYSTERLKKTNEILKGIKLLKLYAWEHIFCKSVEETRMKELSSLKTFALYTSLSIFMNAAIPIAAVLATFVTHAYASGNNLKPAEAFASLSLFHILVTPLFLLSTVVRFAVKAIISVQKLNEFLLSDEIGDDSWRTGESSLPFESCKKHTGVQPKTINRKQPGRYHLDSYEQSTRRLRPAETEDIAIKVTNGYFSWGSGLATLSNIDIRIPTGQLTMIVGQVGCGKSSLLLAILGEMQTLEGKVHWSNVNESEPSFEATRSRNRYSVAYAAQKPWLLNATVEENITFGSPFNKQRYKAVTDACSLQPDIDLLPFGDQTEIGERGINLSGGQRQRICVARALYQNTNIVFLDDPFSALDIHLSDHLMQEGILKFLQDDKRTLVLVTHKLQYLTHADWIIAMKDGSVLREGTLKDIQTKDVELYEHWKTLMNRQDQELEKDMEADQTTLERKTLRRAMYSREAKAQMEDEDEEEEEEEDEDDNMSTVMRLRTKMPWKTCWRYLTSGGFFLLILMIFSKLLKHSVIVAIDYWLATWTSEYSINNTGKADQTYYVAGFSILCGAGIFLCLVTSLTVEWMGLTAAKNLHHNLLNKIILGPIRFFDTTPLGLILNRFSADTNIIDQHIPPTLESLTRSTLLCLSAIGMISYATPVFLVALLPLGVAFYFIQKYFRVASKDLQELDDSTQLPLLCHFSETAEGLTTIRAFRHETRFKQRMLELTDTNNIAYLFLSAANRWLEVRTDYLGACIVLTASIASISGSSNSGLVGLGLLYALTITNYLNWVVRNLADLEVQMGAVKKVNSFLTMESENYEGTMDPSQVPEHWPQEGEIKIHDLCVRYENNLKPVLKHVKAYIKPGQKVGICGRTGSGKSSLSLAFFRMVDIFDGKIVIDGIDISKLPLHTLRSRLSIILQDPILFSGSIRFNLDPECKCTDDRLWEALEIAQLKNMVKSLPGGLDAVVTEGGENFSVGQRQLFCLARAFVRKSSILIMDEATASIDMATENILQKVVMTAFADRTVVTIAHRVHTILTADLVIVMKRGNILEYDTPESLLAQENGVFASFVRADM
T1 sequence (Q14654 whole entry partner): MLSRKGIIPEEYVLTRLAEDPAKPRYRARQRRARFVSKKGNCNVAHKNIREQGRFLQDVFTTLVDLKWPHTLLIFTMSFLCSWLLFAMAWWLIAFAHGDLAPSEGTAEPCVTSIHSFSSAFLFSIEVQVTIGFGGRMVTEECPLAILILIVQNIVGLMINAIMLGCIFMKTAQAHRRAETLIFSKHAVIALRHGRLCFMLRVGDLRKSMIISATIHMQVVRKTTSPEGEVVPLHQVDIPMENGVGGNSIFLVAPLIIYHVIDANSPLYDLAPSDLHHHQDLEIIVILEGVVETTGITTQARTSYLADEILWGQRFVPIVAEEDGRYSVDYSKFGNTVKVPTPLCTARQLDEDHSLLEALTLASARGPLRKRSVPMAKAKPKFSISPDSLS

Take `CCOC(=O)c1cnc2cc(C(F)(F)F)ccc2c1-c1cc(C)cc(OC)c1` [Compound 2, 4-(3-Methoxy-5-methyl-phenyl)-7-trifluoromethyl-quinoline-3-carboxylic acid ethyl ester]: the EC50 is over 30 µM.

For the compound `N#Cc1cccc(-c2ccncc2C(O)c2ccccc2)c1` (centres unmarked) [Compound 19, 3-[3-(Hydroxy-phenyl-methyl)-pyridin-4-yl]-benzonitrile], the EC50 worked out at 9.63 µM. The same measure, in the same setting: in the case of `CCOC(=O)c1cnc2cc(C(F)(F)F)ccc2c1-c1cccc(C#N)c1` [Compound 1, 4-(3-Cyano-phenyl)-7-trifluoromethyl-quinoline-3-carboxylic acid ethyl ester] it was over 30 µM. As to `N#Cc1cccc(-c2ccncc2C(O)c2cccc(F)c2)c1` (centres unmarked) [Compound 21, 3-{3-[(3-Fluoro-phenyl)-hydroxy-methyl]-pyridin-4-yl}-benzonitrile], the midpoint of the response, the EC50, lay at 23.2 µM. The compound `N#Cc1cccc(-c2ccncc2C(O)c2cc(Cl)cc(Cl)c2)c1` (centres unmarked) [Compound 25, 3-{3-[(3,5-Dichloro-phenyl)-hydroxy-methyl]-pyridin-4-yl}-benzonitrile] displayed an EC50 of 9.82 µM.

`COc1ccc(CO)cc1-c1ccncc1CO` [Compound 58] showed an EC50 of over 30 µM. On the same count and under the same terms, then `CCOC(=O)c1cnc2cc(C(F)(F)F)ccc2c1-c1cc(CO)ccc1OC` [Compound 14, 4-(5-Hydroxymethyl-2-methoxy-phenyl)-7-trifluoromethyl-quinoline-3-carboxylic acid ethyl ester], with 4.56 µM. `CCOC(=O)c1cnc2cc(C(F)(F)F)ccc2c1-c1ccc(C)c(C)c1` [Compound 13, 4-(3,4-Dimethyl-phenyl)-7-trifluoromethyl-quinoline-3-carboxylic acid ethyl ester]: the EC50 was over 30 µM and the “% Stimulation” value was 0%. `CCOC(=O)c1ccc(-c2c(C(=O)OCC)cnc3cc(C(F)(F)F)ccc23)cc1` [Compound 4, 4-(4-Ethoxycarbonyl-phenyl)-7-trifluoromethyl-quinoline-3-carboxylic acid ethyl ester] yielded an EC50 of over 30 µM. The same measure, in the same setting: in the case of `CCOC(=O)c1cnc2cc(C(F)(F)F)ccc2c1-c1ccc(-c2ccccc2)cc1` [Compound 5, 4-Biphenyl-4-yl-7-trifluoromethyl-quinoline-3-carboxylic acid ethyl ester] it was over 30 µM. Same read-out and setting: then `O=C(c1ccccc1)c1ccncc1C(O)c1ccccc1` (centres unmarked) [Compound 43, [3-(Hydroxy-phenyl-methyl)-pyridin-4-yl]-phenyl-methanone], with 17.4 µM. With `COc1ccc(C=O)cc1-c1ccncc1C=O` [Compound 53, 4-(5-Formyl-2-methoxy-phenyl)-pyridine-3-carbaldehyde], the EC50 is over 30 µM and the “% Stimulation” value is 30%.

With `Cc1ccc(F)cc1C(O)c1cnccc1-c1cccc(C#N)c1` (centres unmarked) [Compound 38, 3-{3-[(5-Fluoro-2-methyl-phenyl)-hydroxy-methyl]-pyridin-4-yl}-benzonitrile], the EC50 was over 30 µM. Same read-out and setting: then `Cc1ccccc1C(O)c1cnccc1-c1cccc(C#N)c1` (centres unmarked) [Compound 31, 3-{3-[Hydroxy-(2-methyl-phenyl)-methyl]-pyridin-4-yl}-benzonitrile], with 15 µM; and `CC(O)c1cnccc1C(=O)c1ccccc1` (centres unmarked) [Compound 59, [3-(1-Hydroxy-ethyl)-pyridin-4-yl]-phenyl-methanone], with 26.8 µM; and `CCOC(=O)c1cnc2cc(C(F)(F)F)ccc2c1-c1ccccc1` [Compound 6, 4-Phenyl-7-trifluoromethyl-quinoline-3-carboxylic acid ethyl ester], with over 30 µM. `CSc1ccc(C(O)c2cnccc2-c2cccc(C#N)c2)cc1` (centres unmarked) [Compound 34, 3-{3-[Hydroxy-(4-methylsulfanyl-phenyl)-methyl]-pyridin-4-yl}-benzonitrile] registered an EC50 of 20.8 µM.

`CCOC(=O)c1cnc2cc(C(F)(F)F)ccc2c1-c1cc(C(F)(F)F)ccc1F` [Compound 8, 4-(2-Fluoro-5-trifluoromethyl-phenyl)-7-trifluoromethyl-quinoline-3-carboxylic acid ethyl ester] registered an EC50 of over 30 µM.

With `COc1cccc(C(O)c2cnccc2-c2cccc(C#N)c2)c1` (centres unmarked) [Compound 29, 3-{3-[Hydroxy-(3-methoxy-phenyl)-methyl]-pyridin-4-yl}-benzonitrile], the EC50 was 13.7 µM. The compound `N#Cc1cccc(-c2ccncc2C(O)c2ccc(Cl)c(Cl)c2)c1` (centres unmarked) [Compound 24, 3-{3-[(3,4-Dichloro-phenyl)-hydroxy-methyl]-pyridin-4-yl}-benzonitrile] registered an EC50 of 14.5 µM. Same read-out and setting: then `CN(C)c1ccc(C(O)c2cnccc2C(=O)c2ccccc2)cc1` (centres unmarked) [Compound 44, {3-[(4-Dimethylamino-phenyl)-hydroxy-methyl]-pyridin-4-yl}-phenyl-methanone], with 17.4 µM.

Consider `COc1ccc(C(O)c2cnccc2-c2cccc(C#N)c2)cc1` (centres unmarked) [Compound 30, 3-{3-[Hydroxy-(4-methoxy-phenyl)-methyl]-pyridin-4-yl}-benzonitrile], for which the EC50 is over 30 µM and the “% Stimulation” value was found to be 7%.

For the compound `Cc1ccc(C(O)c2cnccc2-c2cccc(C#N)c2)cc1F` (centres unmarked) [Compound 22, 3-{3-[(3-Fluoro-4-methyl-phenyl)-hydroxy-methyl]-pyridin-4-yl}-benzonitrile], the EC50 was determined as 15.1 µM. The same measure, in the same setting: then `O=C(c1ccccc1)c1ccncc1C(O)c1cccc(F)c1` (centres unmarked) [Compound 47, {3-[(3-Fluoro-phenyl)-hydroxy-methyl]-pyridin-4-yl}-phenyl-methanone], with 5.09 µM; and `OC1OC(c2ccccc2)c2ccncc21` (centres unmarked) [Compound 65, 1-Phenyl-1,3-dihydro-furo[3,4-c]pyridin-3-ol], with over 30 µM.

`CCOC(=O)c1cnc2cc(C(F)(F)F)ccc2c1-c1cccc(C(F)(F)F)c1` [Compound 10, 7-Trifluoromethyl-4-(3-trifluoromethyl-phenyl)-quinoline-3-carboxylic acid ethyl ester] came in with an EC50 of over 30 µM.

Compound `N#Cc1cccc(C2OCc3cnccc32)c1` (centres unmarked) [Compound 66, 3-(1,3-Dihydro-furo[3,4-c]pyridin-1-yl)-benzonitrile] displayed an EC50 of 8.19 µM. Still for that read-out and setting: in the case of `COc1ccc(C(O)c2cnccc2-c2cccc(C#N)c2)cc1F` (centres unmarked) [Compound 37, 3-{3-[(3-Fluoro-4-methoxy-phenyl)-hydroxy-methyl]-pyridin-4-yl}-benzonitrile] it was 9.59 µM.

As for `N#Cc1cccc(-c2ccncc2C=O)c1` [Compound 51, 3-(3-Formyl-pyridin-4-yl)-benzonitrile], the EC50 is over 30 µM. Same read-out and setting: then `OCc1cnccc1C(O)c1ccccc1` (centres unmarked) [Compound 56, (3-Hydroxymethyl-pyridin-4-yl)-phenyl-methanol], with over 30 µM; and `CCOC(=O)c1cnc2cc(C(F)(F)F)ccc2c1OS(=O)(=O)C(F)(F)F` [Compound 15, 4-Trifluoromethanesulfonyloxy-7-trifluoromethyl-quinoline-3-carboxylic acid ethyl ester], with 6.27 µM.

Compound `N#Cc1cccc(-c2ccncc2C(O)c2ccc(F)c(F)c2)c1` (centres unmarked) [Compound 23, 3-{3-[(3,4-Difluoro-phenyl)-hydroxy-methyl]-pyridin-4-yl}-benzonitrile] yielded an EC50 of 11.4 µM.

Take `COc1ccccc1C(O)c1cnccc1-c1cccc(C#N)c1` (centres unmarked) [Compound 28, 3-{3-[Hydroxy-(2-methoxy-phenyl)-methyl]-pyridin-4-yl}-benzonitrile]: the concentration for a half-maximal effect (EC50) stood at 10.2 µM. `COc1ccc(C(O)c2cnccc2C(=O)c2ccccc2)cc1F` (centres unmarked) [Compound 45, {3-[(3-Fluoro-4-methoxy-phenyl)-hydroxy-methyl]-pyridin-4-yl}-phenyl-methanone] showed an EC50 of 11.6 µM. Same read-out and setting: then `N#Cc1cccc(-c2ccncc2C(O)c2ccc(Cl)cc2)c1` (centres unmarked) [Compound 26, 3-{3-[(4-Chloro-phenyl)-hydroxy-methyl]-pyridin-4-yl}-benzonitrile], with 10.2 µM; and `N#Cc1cccc(-c2ccncc2C(O)C(F)(F)F)c1` (centres unmarked) [Compound 39, 3-[3-(2,2,2-Trifluoro-1-hydroxy-ethyl)-pyridin-4-yl]-benzonitrile], with 10.5 µM; and `N#Cc1cccc(C(O)c2ccncc2CO)c1` (centres unmarked) [Compound 57, 3-[Hydroxy-(3-hydroxymethyl-pyridin-4-yl)-methyl]-benzonitrile], with over 30 µM. Still for that read-out and setting: then `N#Cc1cccc(-c2ccncc2C(O)c2ccc(F)cc2)c1` (centres unmarked) [Compound 20, 3-{3-[(4-Fluoro-phenyl)-hydroxy-methyl]-pyridin-4-yl}-benzonitrile], with 19.4 µM; and `COc1ccc(F)cc1C(O)c1cnccc1-c1cccc(C#N)c1` (centres unmarked) [Compound 36, 3-{3-[(5-Fluoro-2-methoxy-phenyl)-hydroxy-methyl]-pyridin-4-yl}-benzonitrile], with over 30 µM; and `N#Cc1cccc(C2OC(O)c3cnccc32)c1` (centres unmarked) [Compound 55, 3-(3-Hydroxy-1,3-dihydro-furo[3,4-c]pyridin-1-yl)-benzonitrile], with over 30 µM.

Consider `CC(C)(C)c1ccc(C(O)c2cnccc2-c2cccc(C#N)c2)cc1` (centres unmarked) [Compound 27, 3-{3-[(4-tert-Butyl-phenyl)-hydroxy-methyl]-pyridin-4-yl}-benzonitrile], for which the EC50 was 10.7 µM.
